Target: KRas (Homo sapiens, UniProt P01116, G12C)
Assay: KRas degradation in SW1573 cells by Western blot, normalized to GAPDH (data of Table 14)
Type: cell-based
Conditions: SW1573 cells
Outline: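 SW1573 cells, homozygous for the KRas G12C mutation and maintained in DMEM with 10% FBS and 1% penicillin-streptomycin, were seeded in 12-well plates, allowed to attach overnight at 37° C. under 5% CO2, then serum-starved for 24 hours before compound exposure. KRas levels were measured by Western blot, normalized to GAPDH, and compared with DMSO controls to give percent degradation, DC50 and Dmax.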

Compound | DC50 [nM] | Dmax [%] | Percent Degradation at Indicated Concentration (μM) (0.01 μM) | Percent Degradation at Indicated Concentration (μM) (0.03 μM) | Percent Degradation at Indicated Concentration (μM) (0.1 μM) | Percent Degradation at Indicated Concentration (μM) (0.3 μM) | Percent Degradation at Indicated Concentration (μM) (1 μM)
C=CC(=O)N1CCN(c2nc(O[C@H](C)CN3CCC(CN4CCN(CC(=O)N[C@H](C(=O)N5C[C@H](O)C[C@H]5C(=O)N[C@@H](C)c5ccc(-c6scnc6C)cc5)C(C)(C)C)CC4)CC3)nc3c(F)c(-c4cc(O)cc5ccccc45)c(Cl)cc23)CC1 [compound 403, (2S,4R)-1-((2S)-2-(2-(4-((1-((2R)-2-((4-(4-acryloylpiperazin-1-yl)-6-chloro-8-fluoro-7-(3-hydroxynaphthalen-1-yl)quinazolin-2-yl)oxy)propyl)piperidin-4-yl)methyl)piperazin-1-yl)acetamido)-3,3-dimethylbutanoyl)-4-hydroxy-N-((S)-1-(4-(4-methylthiazol-5-yl)phenyl)ethyl)pyrrolidine-2-carboxamide] | < 100 | 35 to 70 | C (Percent Degradation: C ≤ 35) | B (35 < B < 70) | B (35 < B < 70) | B (35 < B < 70) | C (Percent Degradation: C ≤ 35)
C=CC(=O)N1CCN(c2nc(O[C@H](C)CN3CCC(OCCOCCOCCOCCOCCNc4cccc5c4C(=O)N(C4CCC(=O)NC4=O)C5=O)CC3)nc3c2CCN(c2cc(O)cc4ccccc24)C3)CC1 (stereo partly drawn) [compound 415] | – | – | – | – | C (Percent Degradation: C ≤ 35) | C (Percent Degradation: C ≤ 35) | C (Percent Degradation: C ≤ 35)
C=CC(=O)N1CCN(c2nc(OC[C@@H]3C[C@@H](OCCOCCNc4cccc5c4C(=O)N(C4CCC(=O)NC4=O)C5=O)CN3C)nc3c2CCN(c2cccc4ccccc24)C3)C[C@@H]1CC#N (stereo partly drawn) [compound 516, 2-((2S)-1-acryloyl-4-(2-(((2S,4R)-4-(2-(2-((2-(2,6-dioxopiperidin-3-yl)-1,3-dioxoisoindolin-4-yl)amino)ethoxy)ethoxy)-1-methylpyrrolidin-2-yl)methoxy)-7-(naphthalen-1-yl)-5,6,7,8-tetrahydropyrido[3,4-d]pyrimidin-4-yl)piperazin-2-yl)acetonitrile] | – | 35 to 70 | – | – | C (Percent Degradation: C ≤ 35) | B (35 < B < 70) | B (35 < B < 70)
C=CC(=O)N1CCN(c2nc(O[C@H](C)CN3CCC(OCCOc4cc(-c5scnc5C)ccc4CNC(=O)[C@@H]4C[C@@H](O)CN4C(=O)[C@@H](c4cc(C)no4)C(C)C)CC3)nc3c2CCN(c2cc(O)cc4ccccc24)C3)CC1 [compound 436, (2S,4R)-N-(2-(2-((1-((R)-2-((4-(4-acryloylpiperazin-1-yl)-7-(3-hydroxynaphthalen-1-yl)-5,6,7,8-tetrahydropyrido[3,4-d]pyrimidin-2-yl)oxy)propyl)piperidin-4-yl)oxy)ethoxy)-4-(4-methylthiazol-5-yl)benzyl)-4-hydroxy-1-((R)-3-methyl-2-(3-methylisoxazol-5-yl)butanoyl)pyrrolidine-2-carboxamide] | – | – | – | – | C (Percent Degradation: C ≤ 35) | B (35 < B < 70) | B (35 < B < 70)
C=CC(=O)N1CCN(c2nc(O[C@H](C)CN3CCC(OCCOCCOCCOCCOc4cc([C@@H](C(=O)N5C[C@H](O)C[C@H]5C(=O)N[C@@H](C)c5ccc(-c6scnc6C)cc5)C(C)C)on4)CC3)nc3c(F)c(-c4cc(O)cc5ccccc45)c(Cl)cc23)CC1 [compound 531, (2S,4R)-1-((2S)-2-(3-(2-(2-(2-(2-((1-((2R)-2-((4-(4-acryloylpiperazin-1-yl)-6-chloro-8-fluoro-7-(3-hydroxynaphthalen-1-yl)quinazolin-2-yl)oxy)propyl)piperidin-4-yl)oxy)ethoxy)ethoxy)ethoxy)ethoxy)isoxazol-5-yl)-3-methylbutanoyl)-4-hydroxy-N-((S)-1-(4-(4-methylthiazol-5-yl)phenyl)ethyl)pyrrolidine-2-carboxamide] | – | – | – | C (Percent Degradation: C ≤ 35) | C (Percent Degradation: C ≤ 35) | C (Percent Degradation: C ≤ 35) | –
C=CC(=O)N1CCN(c2nc(O[C@H](C)CN3CCC(OCCOCCOCCOc4ccc5c(c4)C(=O)N(C4CCC(=O)NC4=O)C5=O)CC3)nc3c(F)c(-c4cc(O)cc5ccccc45)c(Cl)cc23)CC1 (stereo partly drawn) [compound 428, 5-(2-(2-(2-((1-((2R)-2-((4-(4-acryloylpiperazin-1-yl)-6-chloro-8-fluoro-7-(3-hydroxynaphthalen-1-yl)quinazolin-2-yl)oxy)propyl)piperidin-4-yl)oxy)ethoxy)ethoxy)ethoxy)-2-(2,6-dioxopiperidin-3-yl)isoindoline-1,3-dione] | – | – | – | – | C (Percent Degradation: C ≤ 35) | C (Percent Degradation: C ≤ 35) | C (Percent Degradation: C ≤ 35)
C=CC(=O)N1CCN(c2nc(O[C@H](C)CN3CCC(OCCOCCOc4ccc5c(c4)C(=O)N(C4CCC(=O)NC4=O)C5=O)CC3)nc3c2CCN(c2cc(O)cc4ccccc24)C3)CC1 (stereo partly drawn) [compound 417, 5-(2-(2-((1-((R)-2-((4-(4-acryloylpiperazin-1-yl)-7-(3-hydroxynaphthalen-1-yl)-5,6,7,8-tetrahydropyrido[3,4-d]pyrimidin-2-yl)oxy)propyl)piperidin-4-yl)oxy)ethoxy)ethoxy)-2-(2,6 dioxopiperidin-3-yl)isoindoline-1,3-dione] | – | – | – | – | C (Percent Degradation: C ≤ 35) | C (Percent Degradation: C ≤ 35) | C (Percent Degradation: C ≤ 35)
C=CC(=O)N1CCN(c2nc(O[C@H](C)CN3CCC(OCCOCCOCCOc4cc([C@@H](C(=O)N5C[C@H](O)C[C@H]5C(=O)N[C@@H](C)c5ccc(-c6scnc6C)cc5)C(C)C)on4)CC3)nc3c(F)c(-c4cc(O)cc5ccccc45)c(Cl)cc23)CC1 [compound 528, (2S,4R)-1-((2S)-2-(3-(2-(2-(2-((1-((2R)-2-((4-(4-acryloylpiperazin-1-yl)-6-chloro-8-fluoro-7-(3-hydroxynaphthalen-1-yl)quinazolin-2-yl)oxy)propyl)piperidin-4-yl)oxy)ethoxy)ethoxy)ethoxy)isoxazol-5-yl)-3-methylbutanoyl)-4-hydroxy-N-((S)-1-(4-(4-methylthiazol-5-yl)phenyl)ethyl)pyrrolidine-2-carboxamide] | – | – | – | C (Percent Degradation: C ≤ 35) | C (Percent Degradation: C ≤ 35) | C (Percent Degradation: C ≤ 35) | –
C=CC(=O)N1CCN(c2nc(O[C@H](C)CN3CCC(OCCOc4cc([C@H](C(=O)N5C[C@H](O)C[C@H]5C(=O)N[C@@H](C)c5ccc(-c6scnc6C)cc5)C(C)C)on4)CC3)nc3c(F)c(-c4cc(O)cc5ccccc45)c(Cl)cc23)CC1 [compound 525, (2S,4R)-1-((2R)-2-(3-(2-((1-((2R)-2-((4-(4-acryloylpiperazin-1-yl)-6-chloro-8-fluoro-7-(3-hydroxynaphthalen-1-yl)quinazolin-2-yl)oxy)propyl)piperidin-4-yl)oxy)ethoxy)isoxazol-5-yl)-3-methylbutanoyl)-4-hydroxy-N-((S)-1-(4-(4-methylthiazol-5-yl)phenyl)ethyl)pyrrolidine-2-carboxamide] | – | – | – | C (Percent Degradation: C ≤ 35) | C (Percent Degradation: C ≤ 35) | C (Percent Degradation: C ≤ 35) | –
C=CC(=O)N1CCN(c2nc(O[C@H](C)CN3CCC(OCCOCCOc4cc([C@H](C(=O)N5C[C@H](O)C[C@H]5C(=O)N[C@@H](C)c5ccc(-c6scnc6C)cc5)C(C)C)on4)CC3)nc3c(F)c(-c4cc(O)cc5ccccc45)c(Cl)cc23)CC1 [compound 527, (2S,4R)-1-((2R)-2-(3-(2-(2-((1-((2R)-2-((4-(4-acryloylpiperazin-1-yl)-6-chloro-8-fluoro-7-(3-hydroxynaphthalen-1-yl)quinazolin-2-yl)oxy)propyl)piperidin-4-yl)oxy)ethoxy)ethoxy)isoxazol-5-yl)-3-methylbutanoyl)-4-hydroxy-N-((S)-1-(4-(4-methylthiazol-5-yl)phenyl)ethyl)pyrrolidine-2-carboxamide] | – | – | – | C (Percent Degradation: C ≤ 35) | C (Percent Degradation: C ≤ 35) | C (Percent Degradation: C ≤ 35) | –
C=CC(=O)N1CCN(c2nc(OC[C@@H]3C[C@@H](OCCOCCOCCOCCNc4cccc5c4C(=O)N(C4CCC(=O)NC4=O)C5=O)CN3C)nc3c2CCN(c2cccc4ccccc24)C3)C[C@@H]1CC#N (stereo partly drawn) [compound 518, 2-((2S)-1-acryloyl-4-(2-(((2S,4R)-4-(2-(2-(2-(2-((2-(2,6-dioxopiperidin-3-yl)-1,3-dioxoisoindolin-4-yl)amino)ethoxy)ethoxy)ethoxy)ethoxy)-1-methylpyrrolidin-2-yl)methoxy)-7-(naphthalen-1-yl)-5,6,7,8-tetrahydropyrido[3,4-d]pyrimidin-4-yl)piperazin-2-yl)acetonitrile] | – | ≥ 70 | – | – | B (35 < B < 70) | A (A > 70) | C (Percent Degradation: C ≤ 35)
